How the values were obtained:
Assay type in all cases: in vivo
[1] = test system: Diamond Back Moth (Plutella xylostella); assay: B.1 Diamond Back Moth (Plutella xylostella), cabbage leaf dip; details: foliar, 500 ppm, 3rd instar larvae on dipped cabbage leaves, 72 hours after treatment, in comparison with untreated controls, read-out: mortality
In short: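 Cabbage leaves dipped in compound in 1:1 water:acetone with 0.01% Kinetic HV surfactant, air-dried, then infested with ten 3rd-instar larvae on moist filter paper. Mortality scored at 72 h after treatment; feeding damage rated on a 0-100% scale.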

[2] = test system: Boll Weevil (Anthonomus grandis); assay: B.3 Boll Weevil (Anthonomus grandis), microtiter plate insect diet; details: 120 h, 800 ppm, sprayed onto insect diet, 5 days, in comparison with untreated controls, read-out: mortality (egg and larval)
In short: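 Compounds in 25% DMSO/water sprayed at several concentrations onto insect diet in microtiter wells holding 5–10 A. grandis eggs, two replicates. Plates kept 5 days at about 25±1 °C and 75±5% RH. Egg and larval mortality scored visually.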

[3] = test system: Mediterranean Fruitfly (Ceratitis capitata); assay: B.6 Mediterranean Fruitfly (Ceratitis capitata), microtiter plate insect diet; details: 120 h, 800 ppm, sprayed onto insect diet, 5 days, in comparison with untreated controls, read-out: mortality (egg and larval)
In short: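 Insect diet with 50-80 C. capitata eggs sprayed with compounds formulated in 75% water/25% DMSO, at different concentrations, two replications. Incubation at about 28±1° C and 80±5% relative humidity for 5 days, then egg and larval mortality assessed visually.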

[4] = test system: Tobacco Budworm (Heliothis virescens); assay: B.7 Tobacco Budworm (Heliothis virescens) I, microtiter plate insect diet; details: 120 h, 800 ppm, sprayed onto insect diet, 5 days, in comparison with untreated controls, read-out: mortality (egg and larval)
In short: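 96-well plates with insect diet and 15-25 H. virescens eggs; compounds in 75% water/25% DMSO sprayed onto diet at several concentrations, two replicates. Plates held at about 28±1° C. and 80±5% relative humidity for 5 days, then egg and larval mortality scored visually.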

[5] = test system: Southern Armyworm (Spodoptera eridania), 2nd Instar Larvae; assay: B.10 Southern Armyworm (Spodoptera eridania), 2nd Instar Larvae, sprayed lima bean plants; details: 96 h, 300 ppm, larvae on sprayed lima bean plants, 4 days after treatment, in comparison with untreated controls, read-out: mortality
Procedure: B.10 Southern Armyworm (Spodoptera eridania), 2nd Instar Larvae
(§1) The active compounds were formulated by a Tecan liquid handler in 100% cyclohexanone as a 10,000 ppm solution supplied in tubes. The 10,000 ppm solution was serially diluted in 100% cyclohexanone to make interim solutions. These served as stock solutions for which final dilutions were made by the Tecan in 50% acetone:50% water (v/v) into 5 or 10 ml glass vials. A nonionic surfactant (Kinetic®) was included in the solution at a volume of 0.01% (v/v). The vials were then inserted into an automated electrostatic sprayer equipped with an atomizing nozzle for application to plants/insects.
Lima bean plants (variety Sieva) were grown 2 plants to a pot and selected for treatment at the 1st true leaf stage. Test solutions were sprayed onto the foliage by an automated electrostatic plant sprayer equipped with an atomizing spray nozzle. The plants were dried in the sprayer fume hood and then removed from the sprayer. Each pot was placed into perforated plastic bags with a zip closure. About 10 to 11 armyworm larvae were placed into the bag and the bags zipped closed. Test plants were maintained in a growth room at about 25° C. and about 20-40% relative humidity for 4 days, avoiding direct exposure to fluorescent light (24 hour photoperiod) to prevent trapping of heat inside the bags. Mortality and reduced feeding were assessed 4 days after treatment, compared to untreated control plants.

[6] = test system: Orchid thrips (dichromothrips corbetti); assay: B.12 Orchid thrips (dichromothrips corbetti), floral-immersion technique; details: adult thrips on dipped orchid petals, 72 hours after treatment, in comparison with untreated controls
Procedure: B.12 Orchid thrips (dichromothrips corbetti)
Dichromothrips corbetti adults used for bioassay were obtained from a colony maintained continuously under laboratory conditions. For testing purposes, the test compound is diluted in a 1:1 mixture of acetone:water (vol:vol), plus Kinetic HV at a rate of 0.01% v/v.
Thrips potency of each compound was evaluated by using a floral-immersion technique. All petals of individual, intact orchid flowers were dipped into treatment solution and allowed to dry in Petri dishes. Treated petals were placed into individual resealable plastic along with about 20 adult thrips. All test arenas were held under continuous light and a temperature of about 28° C. for duration of the assay. After 3 days, the numbers of live thrips were counted on each petal. The percent mortality was recorded 72 hours after treatment.

[7] = test system: Green Peach Aphid (Myzus persicae); assay: B.9 Green Peach Aphid (Myzus persicae), sprayed bell pepper plants; details: 120 h, infested bell pepper plants sprayed, after 5 days, in comparison with untreated controls
Procedure: B.9 Green Peach Aphid (Myzus persicae)
as §1, with “in 100% cyclohexa none as a” for “in 100% cyclohexanone as a”
Bell pepper plants at the first true-leaf stage were infested prior to treatment by placing heavily infested leaves from the main colony on top of the treatment plants. Aphids were allowed to transfer overnight to accomplish an infestation of 30-50 aphids per plant and the host leaves were removed. The infested plants were then sprayed by an automated electrostatic plant sprayer equipped with an atomizing spray nozzle. The plants were dried in the sprayer fume hood, removed, and then maintained in a growth room under fluorescent lighting in a 24-hr photoperiod at about 25° C. and about 20-40% relative humidity. Aphid mortality on the treated plants, relative to mortality on untreated control plants, was determined after 5 days.

[8] = test system: Yellow Fever Mosquito (Aedes aegypti); assay: whole plant or invertebrate; details: 48 h, freshly hatched larvae in tap water, 2 days, in comparison with untreated controls, read-out: mortality (larval)
Procedure: B.11 Yellow Fever Mosquito (Aedes aegypti)
For evaluating control of yellow fever mosquito (Aedes aegypti) the test unit consisted of 96-well-microtiter plates containing 200 μl of tap water per well and 5-15 freshly hatched A. aegypti larvae.
The active compounds were formulated using a solution containing 75% (v/v) water and 25% (v/v) DMSO. Different concentrations of formulated compounds or mixtures were sprayed onto the insect diet at 2.5 μl, using a custom built micro atomizer, at two replications.

Cc1ccccc1NC(=S)N/N=C/c1ccc2c(ccc3c2ncn3-c2ccc(OC(F)(F)F)cc2)c1 [C-23, 3-(o-tolyl)-1-[[3-[4-(trifluoromethoxy)phenyl]-9aH-benzo[e]benzimidazol-7-ylidene]methylimino]isothiourea]
≥ 75%: mortality at 500 ppm [1] | mortality at 800 ppm [2] | mortality at 800 ppm [3] | mortality at 800 ppm [4] | mortality at 300 ppm [5] | mortality at 500 ppm [6]

O=[N+]([O-])c1ccccc1NC(=S)N/N=C/c1ccc2c(ccc3c2ncn3-c2ccc(OC(F)(F)F)cc2)c1 [C-31, 3-(2-nitrophenyl)-1-[[3-[4-(trifluoromethoxy)phenyl]-9aH-benzo[e]benzimidazol-7-ylidene]methylimino] isothiourea]
≥ 75%: mortality at 800 ppm [2] | mortality at 800 ppm [4] | mortality at 800 ppm [7]

Cc1cccc(C)c1NC(=S)N/N=C/c1ccc2c(ccc3c2ncn3-c2ccc(Cl)cc2)c1 [C-106, 1-[(E)-[3-(4-chlorophenyl)benzo[e]benzimidazol-7-yl]methyleneamino]-3-(2,6-dimethylphenyl)thiourea]
≥ 75%: mortality at 800 ppm [2] | mortality at 800 ppm [3] | mortality at 800 ppm [4] | mortality at 300 ppm [5] | mortality at 800 ppm [8]

FC(F)(F)Oc1ccc(-n2nnc3c4ccc(/C=N/NC(=S)Nc5c(Cl)cccc5Cl)cc4ccc32)cc1 [C-57, 1-(2,6-dichlorophenyl)-3-[(E)-[3-[4-(trifluoromethoxy)phenyl]benzo[e]benzotriazol-7-yl]methyleneamino] thiourea]
≥ 75%: mortality at 800 ppm [7]

Cc1cccc([S+](C)[O-])c1NC(=S)N/N=C/c1ccc2c(ccc3c2ncn3-c2ccc(OC(F)(F)F)cc2)c1 (stereo not shown) [C-104, 1-(2-methyl-6-methylsulfinyl-phenyl)-3-[(E)-[3-[4-(trifluoromethoxy)phenyl]benzo[e]benzimidazol-7-yl]methyleneamino]thiourea]
≥ 75%: mortality at 500 ppm [1] | mortality at 800 ppm [2] | mortality at 800 ppm [3] | mortality at 800 ppm [4] | mortality at 300 ppm [5] | mortality at 800 ppm [8] | mortality at 500 ppm [6]

Cc1cccc(C)c1NC(=S)N/N=C/c1ccc2c(ccc3c2ncn3-c2ccc(C(F)(F)F)cc2F)c1 [C-113, 1-(2,6-dimethylphenyl)-3-[[3-[2-fluoro-4-(trifluoromethyl)phenyl]-3aH-benzo[e]benzimidazol-7-ylidene]methylimino]thiourea]
≥ 75%: mortality at 800 ppm [2] | mortality at 800 ppm [3] | mortality at 800 ppm [4] | mortality at 800 ppm [7] | mortality at 800 ppm [8]

Cc1cccc(C)c1NC(=S)N/N=C/c1ccc2c(c1)CCc1c-2nn(C)c1-c1ccc(OC(F)(F)F)cc1 [C-107, 1-(2,6-dimethylphenyl)-3-[(E)-[2-methyl-3-[4-(trifluoromethoxy)phenyl]-4,5-dihydrobenzo[g]indazol-7-yl]methyleneamino]thiourea]
≥ 75%: mortality at 500 ppm [1] | mortality at 800 ppm [2] | mortality at 800 ppm [3] | mortality at 800 ppm [4] | mortality at 300 ppm [5] | mortality at 800 ppm [8] | mortality at 500 ppm [6]

CCc1ccccc1NC(=S)N/N=C/c1ccc2c(ccc3c2ncn3-c2ccc(OC(F)(F)F)cc2)c1 [C-22, 3-(2-ethylphenyl)-1-[[3-[4-(trifluoromethoxy)phenyl]-9aH-benzo[e]benzimidazol-7-ylidene]methylimino] isothiourea]
≥ 75%: mortality at 500 ppm [1] | mortality at 800 ppm [2] | mortality at 800 ppm [3] | mortality at 800 ppm [4] | mortality at 300 ppm [5] | mortality at 800 ppm [8] | mortality at 500 ppm [6]

CCc1cccnc1NC(=S)N/N=C/c1ccc2c(ccc3c2ncn3-c2ccc(OC(F)(F)F)cc2)c1 [C-68, 1-(3-ethyl-2-pyridyl)-3-[(E)-[3-[4-(trifluoromethoxy)phenyl]benzo[e]benzimidazol-7-yl]methyleneamino] thiourea]
≥ 75%: mortality at 500 ppm [1] | mortality at 800 ppm [2] | mortality at 800 ppm [3] | mortality at 300 ppm [5]

Cc1ccc(NC(=S)N/N=C/c2ccc3c(ccc4c3ncn4-c3ccc(OC(F)(F)F)cc3)c2)c(C)c1 [C-2, 1-(2,4-dimethylphenyl)-3-[(E)-[3-[4-(trifluoromethoxy)phenyl]benzo[e]benzimidazol-7-yl]methyleneamino] thiourea]
≥ 75%: mortality at 500 ppm [1] | mortality at 800 ppm [2] | mortality at 800 ppm [3] | mortality at 800 ppm [4] | mortality at 800 ppm [7]

Cc1cccc(C)c1NC(=S)N/N=C/c1ccc2c(ccc3c(-c4ccc(OC(F)(F)F)cc4)onc32)c1 [C-84, 1-(2,6-dimethylphenyl)-3-[(E)-[3-[4-(trifluoromethoxy)phenyl]benzo[g][2,1]benzoxazol-7-yl]methyleneamino] thiourea]
≥ 75%: mortality at 800 ppm [3] | mortality at 800 ppm [4] | mortality at 800 ppm [7]

Cc1cccc(C)c1NC(=S)N/N=C/c1ccc2c(c1)CCc1c-2noc1-c1ccc(OC(F)(F)F)cc1 [C-7, 1-(2,6-dimethylphenyl)-3-[(E)-[3-[4-(trifluoromethoxy)phenyl]-4,5-dihydrobenzo[g][2,1]benzoxazol-7-yl]methyleneamino]thiourea]
≥ 75%: mortality at 800 ppm [4] | mortality at 800 ppm [7] | mortality at 500 ppm [6]

Cc1cccc(C)c1NC(=S)N(C)/N=C/c1ccc2c(ccc3c2ncn3-c2ccc(OC(F)(F)F)cc2)c1 [C-85, 3-(2,6-dimethylphenyl)-1-methyl-1-[(E)-[3-[4-(trifluoromethoxy)phenyl]benzo [e]benzimidazol-7-yl]methyleneamino] thiourea]
≥ 75%: mortality at 500 ppm [1] | mortality at 800 ppm [2] | mortality at 800 ppm [3] | mortality at 800 ppm [4] | mortality at 300 ppm [5] | mortality at 800 ppm [8] | mortality at 500 ppm [6]

Fc1cccc(F)c1NC(=S)N/N=C/c1ccc2c(ccc3c2ncn3-c2ccc(OC(F)(F)F)cc2)c1 [C-71, 1-(2,6-difluorophenyl)-3-[(E)-[3-[4-(trifluoromethoxy)phenyl]benzo[e]benzimidazol-7-yl]methyleneamino] thiourea]
≥ 75%: mortality at 800 ppm [2] | mortality at 800 ppm [3] | mortality at 800 ppm [4] | mortality at 300 ppm [5]
